Consider four molecules from ChEMBL document CHEMBL1926599, “Bis(oxyphenylene)benzimidazoles: a novel class of anti-Plasmodium falciparum agents” (Bioorg Med Chem, 2011).

Calls of active or inactive are those of the source. No cut-off for these calls is given here.

In one data set the test system is L6. The experiment in a line: Cytotoxicity against rat L6 cells after 72 hrs by resazurin-based spectrophotometric assay. It counts as cell-based. As to conditions: L6, 72 h. (The colour change of resazurin is a common sign of viable cells or microbes.)
The next data set relates to Giardia intestinalis. Put plainly: Antiprotozoal activity against Giardia intestinalis G1 after 70 hrs by resazurin-based spectrophotometric assay. The data set is classed as functional, organism-based. As to conditions: Giardia duodenalis, G1, 70 h.
The test system of the next data set is Entamoeba histolytica. The experiment in a line: Antiprotozoal activity against Entamoeba histolytica Hk-9 trophozoites after 70 hrs by resazurin-based spectrophotometric assay. It counts as functional, organism-based. As to conditions: Hk-9, 70 h.
Data set [1] has as its system Trypanosoma brucei rhodesiense. Put plainly: Antitrypanosomal activity against bloodstream form of Trypanosoma brucei rhodesiense STIB 900 after 70 hrs by resazurin-based spectrophotometric assay. As to conditions: STIB 900, 70 h. It counts as functional, organism-based.
For the next data set, the system named is Trypanosoma cruzi. The experiment in a line: Antitrypanosomal activity against trypomastigote form of Trypanosoma cruzi Tulahuen C2C4 expressing Lac Z infected in rat L6 cells after 96 hrs by spectrophotometry. As to conditions: Tulahuen C2C4, L6, 96 h. It counts as functional, organism-based.
The test system of another data set is Leishmania donovani. Put plainly: Antileishmanial activity against Leishmania donovani MHOM-ET-67/L82 after 72 hrs by resazurin-based spectrophotometric assay. The data set is classed as functional, organism-based. As to conditions: MHOM-ET-67/L82, 72 h.
Another data set has as its system Plasmodium falciparum. The experiment in a line: Antiplasmodial activity against chloroquine and pyrimethamine-resistant Plasmodium falciparum K1 assessed as inhibition of [3H]hypoxanthine incorporation incubated for 48 hrs prior to [3H] hypoxanthine addition measured after 24 hrs by liquid scintillation counting. The data set is classed as functional, organism-based.

A short description of data set [2]: Selectivity ratio of IC50 for rat L6 cells to IC50 for Plasmodium falciparum K1. It counts as ADME, cell-based. As to conditions: read-out: Ratio IC50.
Data set [3] can be described thus: Selectivity ratio of IC50 for rat L6 cells to IC50 for bloodstream form of Trypanosoma brucei rhodesiense STIB 900. It counts as ADME, cell-based. As to conditions: read-out: Ratio IC50.
The nature of data set [4]: Selectivity ratio of IC50 for rat L6 cells to IC50 for Giardia intestinalis G1. The data set is classed as ADME, cell-based. As to conditions: read-out: Ratio IC50.
Data set [5] is described as follows: Selectivity ratio of IC50 for rat L6 cells to IC50 for Leishmania donovani MHOM-ET-67/L82. The data set is classed as ADME, cell-based. As to conditions: read-out: Ratio IC50.
Data set [6] deals with Trypanosoma brucei rhodesiense. The experiment in a line: Antitrypanosomal activity against bloodstream form of Trypanosoma brucei rhodesiense STIB 900 after 70 hrs by resazurin-based spectrophotometric assay relative to melarsoprol. It counts as functional.
Data set [7] can be described thus: Inhibition of beta-hematin formation in aqueous acetate buffer. It counts as functional.
Data set [8] is described as follows: Selectivity ratio of IC50 for rat L6 cells to IC50 for Entamoeba histolytica Hk-9. It counts as ADME, cell-based. As to conditions: read-out: Ratio IC50.

In the case of `c1ccc2[nH]c(-c3ccc(OCCCCCCCCCOc4ccc(-c5nc6ccccc6[nH]5)cc4)cc3)nc2c1`, the IC50 – broadly, the point on the concentration scale where inhibition reaches its midpoint – with L6 is 101 µM; with Giardia intestinalis, 0.83 µM; in the data set with Entamoeba histolytica it was 30.7 µM; in data set [1], 0.81 µM; in the data set with Trypanosoma cruzi, more than 165 µM; with Leishmania donovani it was 5.93 µM. Besides, the half-inhibitory concentration (IC50) in the data set on Plasmodium falciparum came to 0.29 µM. Moreover, the selectivity ratio is 344 in data set [2], 123 in data set [3] and 123 in data set [4].

Turning to `c1cc(COc2ccc(-c3nc4ccccc4[nH]3)cc2)cc(COc2ccc(-c3nc4ccccc4[nH]3)cc2)c1`, the IC50 is more than 172 µM in the data set on L6; 3.56 µM in data set [1]; 113 µM with Trypanosoma cruzi; 1.05 µM in the data set with Leishmania donovani; 0.38 µM with Plasmodium falciparum. Besides, the results for the selectivity ratio in data set [2] and in [5] were more than 450 and more than 164, respectively.

On to `c1ccc2[nH]c(-c3ccc(OCCCCCCCCOc4ccc(-c5nc6ccccc6[nH]5)cc4)cc3)nc2c1`, for which the IC50 in the data set on L6 worked out at 19.8 µM; with Giardia intestinalis it was 10.4 µM; in the data set on Entamoeba histolytica it was 65.8 µM; in [1], 39.1 µM; in the data set with Trypanosoma cruzi it was 57 µM; in the data set with Leishmania donovani it was 98.2 µM. Further, in the data set with Plasmodium falciparum, the half-inhibitory concentration (IC50) stood at 0.3 µM. The selectivity ratio in data set [2] worked out at 67. Also, in data set [6], the “Ratio IC50” value turned out to be 100.

Consider `c1ccc2[nH]c(-c3ccc(OCCCCOc4ccc(-c5nc6ccccc6[nH]5)cc4)cc3)nc2c1`, for which the IC50 in the data set with L6 turned out to be 7.84 µM; with Giardia intestinalis, 17.9 µM; in the data set with Entamoeba histolytica, 8.13 µM; in data set [1], 2.76 µM; with Trypanosoma cruzi it was 5.75 µM; in the data set on Leishmania donovani, 3.25 µM. Further, the IC50 with Plasmodium falciparum amounted to 0.44 µM. In data set [7], the inhibition result was “Active”. Moreover, the selectivity ratio worked out at 18 in [2] and 1 in data set [8].
